Literature values in patent publication US20010033859A1, “Transdermal therapeutic system for delivery of dofetilide” (priority 2000, published 2001).

Settings: stated as a property of the drug substance; solvent system not given

- partition coefficient: about 1
Structure (SMILES): CN(CCOc1ccc(NS(C)(=O)=O)cc1)CCc1ccc(NS(C)(=O)=O)cc1 [dofetilide, N-[4-[2-[methyl[2-[4-[(methylsulfonyl)amino]phenoxy]ethyl]amino]ethyl]phenyl]-methanesulfonamide]
